Data on two molecules can be found in patent EP2638113B1, “THIOPHENE AZO DYES AND LAUNDRY CARE COMPOSITIONS CONTAINING THE SAME” (Milliken & Company, priority 2010, dated 2011).

Each structure is given as a SMILES string.

A short description of the data set: Aqueous partition value of a dye (water/1-octanol partitioning, absorbance at λmax). The class given is physicochemical. The following applies: Aqueous Partition Value (APV) = (Af/Ai) × 100%, deionized water / 1-octanol, 10.0 mL each. The protocol: • I. Method for Determining the Aqueous Partition Value of a Dye Dissolve in deionized water to a final volume of 10.0 mL an amount of dye sufficient to provide a solution absorbance value between 0.25 and 1.0, said absorbance being determined at the dye λmax between 400 nm and 750 nm, using a cuvette with 1.0 cm path length. Measure the absorbance of the sample at the dye λmax in a UV/Vis spectrophotometer, then transfer the entire 10.0 mL solution to a 50.0 mL plastic centrifuge tube. Add 10.0 mL of 1-octanol, cap the tube, and mix vigorously for 30 seconds using a Vortex™ mixer. Leave the tube standing undisturbed until the layers cleanly phase separate. […] Analyze the solution as before, and quantify the absorbance loss at λmax as "% of Dye Remaining in Aqueous Layer" as detailed below: % of Dye Remaining in Aqueous Layer = Aqueous Partition Value (APV) = (Af/Ai) × 100% [formula] wherein Ai is the initial solution absorbance at λmax and Af is the final solution absorbance at λmax. • II. […] After such washing step separately rinse the swatches in tap water and air dry the swatches in the dark. • e.) After rinsing and drying each swatch, the hueing efficiency, DE*eff, of the dye is assessed by determining the L*, a*, and b* value measurements of each swatch using a Hunter LabScan XE reflectance spectrophotometer with D65 illumination, 10° observer and UV filter excluded. […]

As for `CCN(CCOCCOCCOCCOCCn1cc[n+](C)c1)c1ccc(/N=N/c2sc(C#N)c(C)c2C#N)c(C)c1` [Example 13], the “% Dye in Water Layer” value is listed as 20%.

Consider `CCN(CCOCCOCCOCCOCC[N+](C)(C)CCCS(=O)(=O)[O-])c1ccc(/N=N/c2sc(C#N)c(C)c2C#N)c(C)c1` [Example 15], for which the “% Dye in Water Layer” value is listed as 3%.
